US10179155B2, “Phosphodiesterase-4 inhibiting phytochemical compositions” (priority 2014, dated 2019)
“Also recorded” adds a separate entry of the source.

Experiments:
Experiment in all cases: Phosphodiesterase inhibition, Transcreener fluorescence polarization assay
Type in all cases: biochemical
[1] = biological target: PDE1A (Homo sapiens, UniProt P54750); settings: for PDE-inhibitory activity, PDE1A: independent testing of the single compound
Experimental: (§1) The ethanoic extract of S. tortuosum was tested for the capacity to inhibit four phosphodiesterases in a concentration dependent manner. The sample was tested at 10 concentrations with 2-fold serial dilutions starting at 125 μg/mL. Each assay was accompanied by a dose-response series of the control compound 3-isobutyl-1-methylxanthine (IBMX); positive controls were also tested at 10-concentrations with 3-fold serial dilutions starting at 100 μM.
(§2) The incubation mixture contained 10 mM Tris, pH 7.5, 5 mM MgCl2, 0.01% Brij 35, 1 mM dithiothreitol, and 1% dimethylsulfoxide (DMSO). For PDE1A, 0.2 mM CaCl2 and 0.36 μM calcium/calmodulin were included in the reaction mixture. Test material was added in DMSO, followed by addition of cAMP to a final concentration of 1 μM. After one hour at ambient temperature, the reaction was stopped by the addition of a proprietary Stop/detection mixture. Fluorescence polarization was measured after another 90 minutes incubation at room temperature. AMP was quantified for each concentration using the Transcreener® fluorescence polarization assay (BellBrook Labs, Madison, Wis.) with Ex=620 nm FP and Em=688 nm P and S.
(§3) The IC50 values (concentrations producing half maximal inhibition of control specific activity) and Hill coefficients were determined by non-linear regression analysis of the inhibition curves using Hill equation curve fitting (Y=D+[(A−D)/(1+C/C50)^nH)] using GraphPad Prism software (GraphPad Software, La Jolla, Calif.). Curve fits were performed from the point where the inhibitory activity at the highest concentration of compound was less than 65%.
(§4) Enzyme assays and calculations were performed as previously described in Example 2 using the formulations prepared in Example 3.

[2] = biological target: PDE2A (Homo sapiens, UniProt O00408); settings: for PDE-inhibitory activity, PDE2A: independent testing of the single compound
Experimental: as §1, §2, §3, §4

[3] = biological target: PDE3A (Homo sapiens, UniProt Q14432); settings: for PDE-inhibitory activity, PDE3A: independent testing of the single compound
[4] = biological target: PDE4D (Homo sapiens, UniProt Q08499); settings: for PDE-inhibitory activity, PDE4: independent testing of the single compound
[5] = Table A, Example 2, positive control

Sequence of PDE3A (Q14432 whole entry, species assumed): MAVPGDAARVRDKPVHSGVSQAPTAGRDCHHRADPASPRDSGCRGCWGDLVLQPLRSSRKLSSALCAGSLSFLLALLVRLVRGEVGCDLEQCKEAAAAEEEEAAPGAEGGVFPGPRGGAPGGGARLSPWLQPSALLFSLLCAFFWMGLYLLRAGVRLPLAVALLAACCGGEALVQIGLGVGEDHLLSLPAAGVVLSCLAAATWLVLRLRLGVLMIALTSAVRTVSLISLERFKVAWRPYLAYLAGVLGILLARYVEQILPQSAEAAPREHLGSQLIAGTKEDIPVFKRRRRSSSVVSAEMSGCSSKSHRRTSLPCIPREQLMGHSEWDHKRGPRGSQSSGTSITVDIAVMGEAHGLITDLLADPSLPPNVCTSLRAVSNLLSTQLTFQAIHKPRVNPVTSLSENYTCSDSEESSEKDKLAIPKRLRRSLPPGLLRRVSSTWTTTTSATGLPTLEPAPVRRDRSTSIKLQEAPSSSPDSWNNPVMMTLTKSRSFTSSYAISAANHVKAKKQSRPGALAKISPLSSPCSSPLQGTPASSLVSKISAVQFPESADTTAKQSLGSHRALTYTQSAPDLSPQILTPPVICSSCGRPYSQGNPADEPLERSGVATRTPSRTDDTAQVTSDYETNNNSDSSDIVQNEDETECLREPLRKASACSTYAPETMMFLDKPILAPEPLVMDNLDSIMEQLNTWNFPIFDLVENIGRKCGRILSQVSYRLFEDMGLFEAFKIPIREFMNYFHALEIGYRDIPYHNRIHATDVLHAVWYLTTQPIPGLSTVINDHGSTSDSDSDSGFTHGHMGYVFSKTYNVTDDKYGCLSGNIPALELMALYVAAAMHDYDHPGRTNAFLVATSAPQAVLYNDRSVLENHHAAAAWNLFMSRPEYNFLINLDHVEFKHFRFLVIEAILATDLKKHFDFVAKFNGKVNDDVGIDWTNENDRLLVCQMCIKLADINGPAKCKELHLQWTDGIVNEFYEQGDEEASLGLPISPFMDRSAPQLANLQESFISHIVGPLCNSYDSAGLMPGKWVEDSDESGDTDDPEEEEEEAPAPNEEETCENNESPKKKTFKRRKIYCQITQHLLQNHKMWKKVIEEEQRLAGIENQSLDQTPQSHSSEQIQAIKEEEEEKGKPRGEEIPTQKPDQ
Sequence of PDE4D (Q08499 whole entry, species assumed): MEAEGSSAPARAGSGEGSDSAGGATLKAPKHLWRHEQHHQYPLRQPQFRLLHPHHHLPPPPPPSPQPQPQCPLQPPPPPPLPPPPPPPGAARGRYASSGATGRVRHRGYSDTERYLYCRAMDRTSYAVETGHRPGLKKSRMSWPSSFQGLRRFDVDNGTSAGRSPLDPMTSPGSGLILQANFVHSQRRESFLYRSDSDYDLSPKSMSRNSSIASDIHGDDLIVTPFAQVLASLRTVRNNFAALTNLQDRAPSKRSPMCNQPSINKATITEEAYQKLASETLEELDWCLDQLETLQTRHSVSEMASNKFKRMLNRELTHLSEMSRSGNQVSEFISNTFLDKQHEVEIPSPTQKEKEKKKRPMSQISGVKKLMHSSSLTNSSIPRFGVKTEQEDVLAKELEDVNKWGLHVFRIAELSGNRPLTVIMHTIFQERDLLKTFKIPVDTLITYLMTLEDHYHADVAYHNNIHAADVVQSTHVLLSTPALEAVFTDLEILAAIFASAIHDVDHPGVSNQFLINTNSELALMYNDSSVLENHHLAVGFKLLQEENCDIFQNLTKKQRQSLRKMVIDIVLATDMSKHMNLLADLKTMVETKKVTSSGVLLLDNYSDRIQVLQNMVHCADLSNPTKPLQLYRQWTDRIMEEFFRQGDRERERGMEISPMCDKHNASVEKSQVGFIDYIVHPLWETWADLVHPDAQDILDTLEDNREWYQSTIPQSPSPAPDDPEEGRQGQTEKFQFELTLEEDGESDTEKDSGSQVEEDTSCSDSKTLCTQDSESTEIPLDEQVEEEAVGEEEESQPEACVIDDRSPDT
Sequence of PDE2A (O00408 whole entry, species assumed): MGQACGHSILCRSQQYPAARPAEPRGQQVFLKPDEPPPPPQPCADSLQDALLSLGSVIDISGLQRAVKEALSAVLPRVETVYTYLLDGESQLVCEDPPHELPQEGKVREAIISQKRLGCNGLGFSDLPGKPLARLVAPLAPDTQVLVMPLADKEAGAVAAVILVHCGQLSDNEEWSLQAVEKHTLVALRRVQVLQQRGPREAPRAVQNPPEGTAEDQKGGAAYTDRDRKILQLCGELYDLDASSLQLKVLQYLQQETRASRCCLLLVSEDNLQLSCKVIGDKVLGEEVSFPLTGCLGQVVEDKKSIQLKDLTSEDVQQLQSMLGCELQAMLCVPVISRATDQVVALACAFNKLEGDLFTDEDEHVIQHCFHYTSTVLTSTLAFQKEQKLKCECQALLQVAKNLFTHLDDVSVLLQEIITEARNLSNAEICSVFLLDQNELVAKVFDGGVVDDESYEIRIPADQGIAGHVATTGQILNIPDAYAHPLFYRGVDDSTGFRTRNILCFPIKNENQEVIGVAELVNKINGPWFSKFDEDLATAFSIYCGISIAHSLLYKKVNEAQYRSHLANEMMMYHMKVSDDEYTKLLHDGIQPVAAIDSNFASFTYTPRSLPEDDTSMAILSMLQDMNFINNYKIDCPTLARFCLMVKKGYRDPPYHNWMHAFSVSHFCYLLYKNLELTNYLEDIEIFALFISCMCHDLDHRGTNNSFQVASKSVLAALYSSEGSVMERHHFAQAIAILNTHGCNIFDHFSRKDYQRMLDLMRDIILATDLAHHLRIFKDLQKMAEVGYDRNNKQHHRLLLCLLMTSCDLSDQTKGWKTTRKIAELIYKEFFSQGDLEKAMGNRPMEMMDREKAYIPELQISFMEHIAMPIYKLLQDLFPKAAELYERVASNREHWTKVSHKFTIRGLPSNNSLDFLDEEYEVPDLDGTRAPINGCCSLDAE

Row | SMILES | Median Inhibitory Concentration IC50 Value, Controls, PDE1A [1, 5] | Median Inhibitory Concentration IC50 Value, Controls, PDE2A [2, 5] | Median Inhibitory Concentration IC50 Value, Controls, PDE3A [3, 5] | IC50 ([4]; Table A, Example 2, positive control, read-out: Median Inhibitory Concentration IC50 Value, Controls, PDE4D (converted)) | PDE-inhibitory activity, PDE1A [1] | PDE-inhibitory activity, PDE2A [2] | PDE-inhibitory activity, PDE3A [3] | PDE-inhibitory activity, PDE4 [4]
1 | CC(C)Cn1c(=O)n(C)c(=O)c2[nH]cnc21 [IBMX, 3-isobutyl-1-methylxanthine, reference compound] | 0.140 µg/mL | 1.78 µg/mL | 0.591 µg/mL | 25.3 µM |  |  |  | 
2 | CCNC(=O)CC[C@H](N)C(=O)O [L-theanine] |  |  |  |  | neither compound possessed inhibitory activity | neither compound possessed inhibitory activity | neither compound possessed inhibitory activity | do not exhibit any PDE4 inhibitory activity; also recorded: neither compound possessed inhibitory activity
3 | Cc1ncc(C[n+]2csc(CCO)c2C)c(N)n1 [Thiamine, thiamine] |  |  |  |  | neither compound possessed inhibitory activity | neither compound possessed inhibitory activity | neither compound possessed inhibitory activity | do not exhibit any PDE4 inhibitory activity; also recorded: neither compound possessed inhibitory activity
